Test results: ChEMBL document CHEMBL6115007, “Synthesis and in vitro and in vivo evaluation of novel bivalent quinolines as antitumor agents via targeting autophagy in cervical cancer” (Eur J Med Chem, 2025)
The source made the active and inactive calls. No cut-off for these calls is given here.

Assays:
C-33-A [1] = test: Inhibition of colony formation in human C-33-A cells assessed as reduction in colony forming unit count at 0.05 to 0.2 uM incubated for 24 hrs by crystal violet staining based analysis; type: functional, cell-based; conditions: dose 0.05-0.2 µM
HeLa [2] = test: Effect on cleaved caspase 3 expression level in Bax deficient human HeLa cells at 0.6 to 1.2 uM incubated for 24 hrs by Western blot analysis; type: functional, cell-based; conditions: dose 0.6-1.2 µM
HeLa [3] = test: Effect on caspase 3 expression level in human HeLa cells at 0.3 to 1.2 uM incubated for 24 hrs by Western blot analysis; type: functional, cell-based; conditions: dose 0.3-1.2 µM
Ca-Ski [4] = test: Induction of apoptosis in human Ca Ski cells assessed as viable cells at 1 uM preincubated with Z-VAD-FMK for 1 hrs followed by compound addition and measured after 24 hrs by Annexin V-FITC/PI staining based flow cytometric analysis (reference value: 90.2 %); type: functional; conditions: read-out: Activity
Ca-Ski [5] = test: Induction of ferroptosis in human Ca Ski cells assessed as increase in lipid ROS level by measuring rightward shift in fluorescence intensity at 0.5 uM measured after 24 hrs by C11-BODIPY-581/591 staining based flow cytometric analysis; type: functional, cell-based
BGC-823 = test: Antiproliferative activity against human BGC-823 cells assessed as reduction in cell optical density incubated for 48 hrs by MTT assay; type: functional, cell-based; conditions: BGC-823, 48 h
HeLa [6] = test: Inhibition of colony formation in human HeLa cells assessed as reduction in colony forming unit count at 0.15 to 0.6 uM incubated for 24 hrs by crystal violet staining based analysis; type: functional, cell-based; conditions: dose 0.15-0.6 µM
Ca-Ski [7] = test: Inhibition of cell migration in human Ca Ski cells at 0.5 to 1.0 uM measured after 48 hrs by cell scratch assay; type: functional, cell-based; conditions: dose 0.5-1 µM
HeLa [8] = test: Induction of apoptosis in human HeLa cells assessed as necrotic cells at 0.6 uM preincubated with Z-VAD-FMK for 1 hrs followed by compound addition and measured after 24 hrs by Annexin V-FITC/PI staining based flow cytometric analysis (reference value: 2.16 %); type: functional
C-33-A [9] = test: Antiproliferative activity against human C-33-A cells assessed as inhibition of cell viability incubated for 24 hrs by CCK8 assay; type: functional, cell-based
SiHa [10] = test: Induction of morphological changes in human SiHa cells assessed as increase in appearance of round cells at 0.5 to 2 uM by microphotographic analysis; type: functional, cell-based; conditions: dose 0.5-2 µM
Ca-Ski [11] = test: Induction of morphological changes in human Ca Ski cells assessed as decrease in cell adherence to culture dish at 0.5 to 2 uM by microphotographic analysis; type: functional, cell-based; conditions: dose 0.5-2 µM
HeLa [12] = test: Effect on SLC7A11 protein expression level in human HeLa cells at 0.6 uM incubated for 24 hrs by Western blot analysis; type: functional, cell-based
SiHa [13] = test: Antiproliferative activity against human SiHa cells assessed as inhibition of cell growth at 0.4 to 1.6 uM by CCK8 assay; type: functional, cell-based; conditions: dose 0.4-1.6 µM, time 6.0 day
Ca-Ski [14] = test: Induction of autophagy in human Ca Ski cells assessed as increase in p62 level at 0.25 to 1 microM incubated for 24 hrs by Western blot analysis; type: functional, cell-based; conditions: dose 0.25-1 µM
Ca-Ski [15] = test: Inhibition of colony formation in ATG5 deficient human Ca Ski cells at 0.1 to 0.4 uM incubated for 24 hrs by crystal violet staining based analysis; type: functional, cell-based; conditions: dose 0.1-0.4 µM
Ca-Ski [16] = test: Effect on cleaved caspase 3 expression level in Bax deficient human Ca Ski cells at 0.5 to 1 uM incubated for 24 hrs by Western blot analysis; type: functional, cell-based; conditions: dose 0.5-1 µM
HeLa [17] = test: Induction of apoptosis in human HeLa cells assessed as necrotic cells at 1.2 uM incubated for 24 hrs by Annexin V-FITC/PI staining based flow cytometric analysis (reference value: 1.88 %); type: functional
Ca-Ski [18] = test: Induction of apoptosis in human Ca Ski cells assessed as early apoptotic cells at 0.5 uM incubated for 24 hrs by Annexin V-FITC/PI staining based flow cytometric analysis (reference value: 4.76 %); type: functional
Ca-Ski [19] = test: Antiproliferative activity against human Ca Ski cells assessed as inhibition of cell growth at 0.4 to 1.6 uM by CCK8 assay; type: functional, cell-based; conditions: dose 0.4-1.6 µM, time 6.0 day
HeLa [20] = test: Induction of autophagy in human HeLa cells transfected with mRFP-GFP-LC3 plasmid assessed as decrease in GFP fluorescence at 0.4 to 0.8 uM incubated for 24 hrs by DAPI staining based fluorescence confocal microscopic analysis; type: functional, cell-based; conditions: dose 0.4-0.8 µM
Ca-Ski [21] = test: Induction of autophagy in human Ca Ski cells transfected with mRFP-GFP-LC3 plasmid assessed as decrease in GFP fluorescence at 25 uM incubated for 24 hrs by DAPI staining based fluorescence confocal microscopic analysis; type: functional, cell-based
HeLa [22] = test: Effect on cleaved PARP expression level in human HeLa cells at 0.3 to 1.2 uM incubated for 24 hrs by Western blot analysis; type: functional, cell-based; conditions: dose 0.3-1.2 µM
HeLa [23] = test: Induction of apoptosis in human HeLa cells assessed as late apoptotic cells at 0.6 uM preincubated with Z-VAD-FMK for 1 hrs followed by compound addition and measured after 24 hrs by Annexin V-FITC/PI staining based flow cytometric analysis (reference value: 1.02 %); type: functional
Ca-Ski [24] = test: Effect on caspase 3 expression level in human Ca Ski cells at 0.25 to 1 uM incubated for 24 hrs by Western blot analysis; type: functional, cell-based; conditions: dose 0.25-1 µM
HeLa [25] = test: Induction of apoptosis in human HeLa cells assessed as late apoptotic cells at 0.6 uM incubated for 24 hrs by Annexin V-FITC/PI staining based flow cytometric analysis (reference value: 0.94 %); type: functional
HeLa [26] = test: Antiproliferative activity against human HeLa cells assessed as inhibition of cell viability incubated for 24 hrs by CCK8 assay; type: functional, cell-based
[27] = Toxicity in female BALB/c mouse xenografted with human HeLa cells assessed as effect on body weight at 4 to 8 mg/kg administered every four days and measured after 26 days; type: organism-based; conditions: in vivo, 624 h, dose 4-8 mg/kg, time 26 day
Ca-Ski [28] = test: Induction of apoptosis in human Ca Ski cells assessed as late apoptotic cells at 0.5 uM preincubated with Z-VAD-FMK for 1 hrs followed by compound addition and measured after 24 hrs by Annexin V-FITC/PI staining based flow cytometric analysis (reference value: 5.30 %); type: functional
HeLa [29] = test: Induction of autophagy in ATG5 deficient human HeLa cells assessed as increase in LC3-II expression at 0.6 to 1.2 uM incubated for 24 hrs by Western blot analysis; type: functional, cell-based; conditions: dose 0.6-1.2 µM
HeLa [30] = test: Antiproliferative activity against p53 deficient human HeLa cells assessed as inhibition of cell viability incubated for 24 hrs by CCK8 assay; type: functional, cell-based
HeLa [31] = test: Effect on GPX4 protein expression level in human HeLa cells at 0.6 uM incubated for 24 hrs by Western blot analysis; type: functional, cell-based
Ca-Ski [32] = test: Effect on cleaved PARP expression level in human Ca Ski cells at 0.25 to 1 uM incubated for 24 hrs by Western blot analysis; type: functional, cell-based; conditions: dose 0.25-1 µM
[33] = Toxicity in female BALB/c mouse xenografted with human HeLa cells assessed as effect on AST level at 4 to 8 mg/kg administered every four days and measured after 26 days; type: organism-based; conditions: in vivo, 624 h, dose 4-8 mg/kg, time 26 day

In the case of `COc1cccc(Nc2ccnc3cc(OCCCCCOc4ccc5c(Nc6cccc(OC)c6)ccnc5c4)ccc23)c1`, the inhibition (C-33-A [1]) is reported as “Active”, the Activity (HeLa [2]) is reported as “inactive” and the Activity (HeLa [3]) is reported as “inactive”. For the same compound, the viability at 1 µM (Ca-Ski [4]) was 86.1%, the Activity (Ca-Ski [5]) was “inactive” and the IC50 (BGC-823) was 4.06 µM. The inhibition (HeLa [6]) was “Active”, the inhibition (Ca-Ski [7]) was “Active” and the Activity (HeLa [8]) was 1.01%. For the same compound, the Activity (C-33-A [9]) was “Dose-dependent-effect”, the IC50 (C-33-A [9]) was 0.807 µM and the Activity (SiHa [10]) was “Active”. For the same compound, the Activity (Ca-Ski [11]) was “Active”, the Activity (HeLa [12]) was “Moderate_effect” and the Activity (SiHa [13]) was “Time-dependent-effect”. For the same compound, the Activity (Ca-Ski [14]) was “Active”, the inhibition (Ca-Ski [15]) was “Minimal_effect” and the Activity (Ca-Ski [16]) was “inactive”. For the same compound, the Activity (HeLa [17]) was 1.47%, the Activity (Ca-Ski [18]) was 8.01% and the Activity (Ca-Ski [19]) was “Time-dependent-effect”. For the same compound, the Activity (HeLa [20]) was “Active”, the Activity (Ca-Ski [21]) was “Active” and the Activity (HeLa [22]) was “inactive”. For the same compound, the Activity (HeLa [23]) was 2.8%, the Activity (Ca-Ski [24]) was “inactive” and the Activity (HeLa [25]) was 2.27%. The Activity (HeLa [26]) was “Dose-dependent-effect”, the IC50 (HeLa [26]) was 0.648 µM and the Activity [27] was “Non-toxic”. The Activity (Ca-Ski [28]) was 17.3%, the Activity (HeLa [29]) was “inactive” and the IC50 (HeLa [30]) was 1.11 µM. For the same compound, the Activity (HeLa [31]) was “Moderate_effect”, the Activity (Ca-Ski [32]) was “inactive” and the Activity [33] was “Non-toxic”.
